Data as given in US12172985B1, “6-(6-bromo-2-oxo-2H-chromen-3-yl)-4-(3-bromophenyl)-2-alkoxynicotinonitrile as antimicrobial compounds” (KING FAISAL UNIVERSITY, priority 2023, dated 2024).

Columns and labels:
Assay type in all cases: cell-based
[1] = system: Chrysosporium keratinophilum; assay: Agar plate disc-diffusion, antifungal inhibition zone; conditions: DMSO control zone subtracted
Description: (§1) The agar plate disc-diffusion method was applied. Sterilized filter papers (6 mm in diameter) were wetted with 10 μL of a solution of compounds 6-(6-bromo-2-oxo-2H-chromen-3-yl)-4-(3-bromophenyl)-2-ethoxynicotinonitrile 1 or 6-(6-bromo-2-oxo-2H-chromen-3-yl)-4-(3-bromophenyl)-2-methoxynicotinonitrile 2 to be tested, containing […], and the discs were allowed to air dry. The discs were then placed onto the surface of agar plates (nutrient agar for bacteria and Sabouraud's dextrose agar for fungi) seeded with the test organism. Each plate contained 15 mL of the agar medium, previously seeded with 0.2 mL of the broth culture of each organism pregrown for 18 hours. The plates were incubated at 37° C. for 48 hours, and 72 hours for fungi. The inhibition zones were measured in mm. Discs impregnated with DMSO were used as a control, and its inhibition zone was subtracted from the tested compound actual inhibition zone.
(§2) The results of the antimicrobial testing can be observed in Tables 1 and 2, below, using ciprofloxacin as a reference.

[2] = system: Aspergillus flavus; assay: as above; conditions: DMSO control zone subtracted
Description: as §1, §2

[3] = system: different microbes; assay: Antimicrobial testing, overall conclusion; conditions: summary of Tables 1 and 2, bacteria and fungi
Description: as §1, §2
Their antibacterial activity was screened against gram positive bacteria namely Bacillus cereus and Staphylococcus aureus and gram-negative bacterial strains namely Pseudomonas aeruginosa and Escherichia coli, while their antifungal activity was screened against Aspergillus flavus and Chrysosporium keratinophilum.

[4] = system: Bacillus Cereus; assay: Agar plate disc-diffusion, antibacterial inhibition zone; conditions: DMSO control zone subtracted
Description: as §1, §2

[5] = system: Staphylococcus aureus; assay: as above; conditions: DMSO control zone subtracted
Description: as §1, §2

[6] = system: Escherichia coli; assay: as above; conditions: DMSO control zone subtracted
Description: as §1, §2

[7] = system: Pseudomonas aeruginosa; assay: as above; conditions: DMSO control zone subtracted
Description: as §1, §2

[8] = A = concentration of comp. = 10,000 μL
[9] = B = concentration of comp. = 30,000 μL
[10] = C = concentration of comp. = 50,000 μL

SMILES	inhibition zone [1, 8] [mm]	inhibition zone [1, 9] [mm]	inhibition zone [1, 10] [mm]	inhibition zone [2, 8] [mm]	inhibition zone [2, 9] [mm]	inhibition zone [2, 10] [mm]	antimicrobial activities (in words) [3]	inhibition zone ([4]; A =) [mm]	inhibition zone [4, 9] [mm]	inhibition zone [4, 10] [mm]	inhibition zone [5, 8] [mm]	inhibition zone [5, 9] [mm]	inhibition zone [5, 10] [mm]	inhibition zone [6, 8] [mm]	inhibition zone [6, 9] [mm]	inhibition zone [6, 10] [mm]	inhibition zone ([7]; A = concentration of comp.) [mm]	inhibition zone [7, 9] [mm]	inhibition zone [7, 10] [mm]
CCOc1nc(-c2cc3cc(Br)ccc3oc2=O)cc(-c2cccc(Br)c2)c1C#N [Compound 1, 6-(6-bromo-2-oxo-2H-chromen-3-yl)-4-(3-bromophenyl)-2-ethoxynicotinonitrile]	25	28	39	20	24	34	high antimicrobial activities	23	26	36	16	19	33	28	37	48	24	28	38
O=C(O)c1cn(C2CC2)c2cc(N3CCNCC3)c(F)cc2c1=O [Cip., ciprofloxacin, reference compound]	29	30	53	29	30	42		29	30	42	43	44	53	30	39	60	29	30	53
COc1nc(-c2cc3cc(Br)ccc3oc2=O)cc(-c2cccc(Br)c2)c1C#N [Compound 2, 6-(6-bromo-2-oxo-2H-chromen-3-yl)-4-(3-bromophenyl)-2-methoxynicotinonitrile]	24	28	42	24	27	39	high antimicrobial activities	27	29	37	15	23	29	28	35	48	25	32	37
